# Key:
# [1] = tested on: primary cortical neurons; experiment: α-tubulin and MAP2 expression in primary cortical neurons; assay type: cell-based, rat; conditions: 10 and 30 μM, 14 days
# Description: Primary culture of cortical neurons was prepared from embryonic day 18±0.5 Sprague-Dawley rats. One day after seeding, primary cortical neurons were treated with 10 and 30 μM BHDPC for 14 days. Fourteen days following BHDPC treatment, primary cortical neurons cultured on glass coverslips (Thermo Scientific) were fixed with 4% paraformaldehyde for 15 min. Following fixation, neurons were permeabilized with 0.1% Triton X-100 in Tris-buffered saline for 7 min, and blocked with 4% bovine serum albumin and 2% goat serum for 1 h. α-tubulin and MAP2 were incubated at 1:400 dilution for 1 h at room temperature and overnight at 4° C. respectively. Following primary antibody incubation, neurons were incubated with Alexa Flour 488 or 568 secondary antibodies (anti-rabbit or anti-mouse) at 1:400 dilution for 1 h at room temperature. The coverslips were then mounted on microscopic slides (Thermo Scientific) using ProLong® Gold Antifade Mountant (Molecular Probes). Neurons were imaged using the LSM 780 laser scanning microscope (Carl Zeiss). Fluorescence intensity was measured using Image J.
# [2] = tested on: oligodendroglial progenitor cells (OPCs); experiment: Hydrogen peroxide-induced OPC death (MTT assay); assay type: cell-based, rat; conditions: 30 μM, 200 μM hydrogen peroxide 6 h
# Description: OPCs were incubated with 30 μM BHDPC or 0.1% DMSO (vehicle control) for 2 h followed by the addition or not of 200 μM H2O2 for a further 6 h (FIG. 11A) or LPS (FIG. 11B) for 24 h.
# The percentage of surviving cells was estimated by determining the activity of mitochondrial dehydrogenases with 3(4,5-dimethylthiazol-2-yl)-2,5-diphenyltetrazolium bromide (MTT) assay. After drug treatment, cells were incubated at 37° C. for 4 h in 0.5 mg/mL MTT solution. The medium was then removed, and 100 μL of DMSO was added to each well to dissolve the violet formazan crystals. The absorbance of the samples was measured at a wavelength of 570 nm with 655 nm as a reference wavelength. All values were normalized to the control groups.
# (§1) Purified OPC cultures were prepared as described. In brief, primary rat mixed glial cell cultures were isolated from whole brains of postnatal day (P) 2 rats, dissociated into single cells, and cultured into poly-D-lysine (PDL) coated T75 tissue culture flasks. Plating medium consisted of Dulbecco's modified Eagle's medium (DMEM, Invitrogen, Carlsbad, Calif.) supplemented with 10% fetal bovine serum (FBS; Invitrogen, Carlsbad, Calif.), […]. Tissue cultures were maintained at 37° C. in a humidified 5% CO2 incubator, and medium was exchanged every 3 days. […]
# [3] = tested on: oligodendroglial progenitor cells (OPCs); experiment: OPC proliferation (EdU incorporation assay and Ki67 immunostaining); assay type: cell-based, rat; conditions: 2 days
# Description: FIGS. 10A, 10B and 10C show the effects of BHDPC in oligodendroglial progenitor cells (OPCs) proliferation. OPCs were incubated with the drugs at indicated concentrations in proliferation medium for 2 days. (FIG. 10A) The cell viability was measured by MTT assay.
# as §1, with “days. Once confluent (after 10-15 days), microglia were separated by mechanical shaking of flasks on a rotary shaker for […] at 250 rpm and removed.” for “days.”
# OPC was incubated with BHDPC or 0.1% DMSO in the proliferation medium for two days. […] Photographs were captured by fluorescence microscope.
# To test the effect of BHDPC on primary OPC culture, OPCs were treated with BHDPC for 48 h and the cell viability was determined using MTT assay. […]
# [4] = molecular target: ROCK2 (Homo sapiens, UniProt O75116); experiment: Kinase activity assay ROCK2; assay type: biochemical; conditions: read-out: ROCK 2 IC50
# Chain of ROCK2 (O75116 whole entry, species assumed, canonical isoform): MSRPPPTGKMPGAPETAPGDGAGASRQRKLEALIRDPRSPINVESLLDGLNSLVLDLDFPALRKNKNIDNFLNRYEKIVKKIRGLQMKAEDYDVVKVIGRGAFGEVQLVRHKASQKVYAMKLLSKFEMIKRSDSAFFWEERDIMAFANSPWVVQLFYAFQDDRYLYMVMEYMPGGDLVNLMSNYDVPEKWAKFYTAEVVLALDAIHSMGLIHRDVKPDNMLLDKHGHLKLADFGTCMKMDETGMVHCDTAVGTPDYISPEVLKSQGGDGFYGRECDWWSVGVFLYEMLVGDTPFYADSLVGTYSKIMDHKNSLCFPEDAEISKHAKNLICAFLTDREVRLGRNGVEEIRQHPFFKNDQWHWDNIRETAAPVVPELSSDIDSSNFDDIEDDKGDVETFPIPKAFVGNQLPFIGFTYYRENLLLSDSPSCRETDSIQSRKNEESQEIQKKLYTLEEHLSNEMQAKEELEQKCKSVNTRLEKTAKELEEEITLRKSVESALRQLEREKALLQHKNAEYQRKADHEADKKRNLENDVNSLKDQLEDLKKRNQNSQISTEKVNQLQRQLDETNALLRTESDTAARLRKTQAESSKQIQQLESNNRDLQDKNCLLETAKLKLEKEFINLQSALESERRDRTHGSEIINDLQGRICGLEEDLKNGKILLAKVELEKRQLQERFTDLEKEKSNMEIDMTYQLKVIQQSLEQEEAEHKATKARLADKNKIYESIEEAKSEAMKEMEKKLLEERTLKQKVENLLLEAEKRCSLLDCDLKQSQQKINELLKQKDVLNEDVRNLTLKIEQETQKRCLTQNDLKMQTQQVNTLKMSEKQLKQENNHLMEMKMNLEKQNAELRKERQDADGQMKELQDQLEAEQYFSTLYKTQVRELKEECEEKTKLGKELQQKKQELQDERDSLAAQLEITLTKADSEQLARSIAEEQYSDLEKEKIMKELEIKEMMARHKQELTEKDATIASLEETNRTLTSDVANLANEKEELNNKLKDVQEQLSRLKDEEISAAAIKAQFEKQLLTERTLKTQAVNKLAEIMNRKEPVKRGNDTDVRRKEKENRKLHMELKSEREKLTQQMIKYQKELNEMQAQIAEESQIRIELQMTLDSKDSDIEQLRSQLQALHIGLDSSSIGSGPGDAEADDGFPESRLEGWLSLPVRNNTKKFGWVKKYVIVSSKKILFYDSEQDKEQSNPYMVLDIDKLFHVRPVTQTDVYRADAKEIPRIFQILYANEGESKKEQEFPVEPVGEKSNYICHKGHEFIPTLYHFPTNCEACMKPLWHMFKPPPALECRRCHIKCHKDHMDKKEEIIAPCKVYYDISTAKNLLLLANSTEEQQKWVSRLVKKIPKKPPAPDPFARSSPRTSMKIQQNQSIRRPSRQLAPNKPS
# From the text: ROCK has two isoforms (ROCK1 and ROCK2) sharing the same downstream proteins. Bioassay and molecular docking are used to compare the characteristics of BHDPC on ROCK. […] Through molecular docking and molecular dynamics simulation, the interaction between the inhibitor and ROCK1 was shown in FIG. 17.
smiles,measurement,setting,value
"COc1cc(C2C(C(=O)OCc3ccccc3)=C(C)Nc3nnnn32)ccc1O (stereo not drawn) [BHDPC, benzyl 7-(4-hydroxy-3-methoxyphenyl)-5-methyl-4,7-dihydrotetrazolo[1,5-a]pyrimidine-6-carboxylate]",level of microtubule-associated protein (MAP2),[1],increase levels
same,level of α-tubulin,[1],increase levels
same,hydrogen peroxide-induced cell death,[2],dramatically attenuated
same,ratio of EdU+/oligo2 cells,[3]; 30 μM,increased
same,ratio of Ki67+/oligo2 cells,[3],increased
same,IC50,[4],408 µM

# — patent publication US20160113931A1, “Method of treating and/or preventing neurodegenerative diseases” (University of Macau, priority 2014, published 2016)
